The text on the data set: To obtain Form II in high chemical purity the starting material should also be chemically pure.

Structures are written as SMILES.

Regarding `CCCCc1nc(Cl)c(CO)n1Cc1ccc(-c2ccccc2-c2nnn[nH]2)cc1.[K]` [losartan potassium], the solubility in methanol result (methanol, complete dissolution at room temperature) is “highly soluble”. For the same molecule, the solubility in xylene result (xylene, either crystalline or amorphous) is given as “low solubility”.

These data come from patent US7332612B2 (Teva Pharmaceutical Industries Ltd., priority 2001, dated 2008).
